# From ChEMBL document CHEMBL4052678, “Urotensin core mimics that modulate the biological activity of urotensin-II related peptide but not urotensin-II” (Bioorg Med Chem Lett, 2017)
# Active and inactive are the calls of the source. The calls are words filed in the database; no cut-off is given here. Starred links: 1 amine or outer side, 2 acyl side, 3 side chain; linkers in the order of their positions; H or OH if unused. Non-standard residues stand in square brackets, D forms with d. Residues, ends and D or L forms follow the SMILES beside them. X1 = O=C(Cn1cc(CN[*:1])nn1)[*:2]
# What was measured:
# Type in all cases: functional
# Aorta [1] = assay: Inhibition of human urotensin II-induced contraction in Sprague-Dawley rat aortic rings assessed as Emax for urotensin II at 30 umol relative to KCl-induced contraction (reference value: 104 +/- 4%)
# Aorta [2] = assay: Inhibition of urotensin II-related peptide-induced contraction in Sprague-Dawley rat aortic rings assessed as Emax for urotensin II-related peptide at 30 umol relative to KCl-induced contraction (reference value: 113 +/- 2%)
# Aorta [3] = assay: Inhibition of human urotensin II-induced contraction in Sprague-Dawley rat aortic rings assessed as Emax for urotensin II relative to KCl-induced contraction (reference value: 8.59 +/- 0.08)
# Aorta [4] = assay: Inhibition of urotensin II-related peptide-induced contraction in Sprague-Dawley rat aortic rings assessed as Emax for urotensin II-related peptide relative to KCl-induced contraction (reference value: 8.07 +/- 0.03)
# Aorta [5] = assay: Induction of contraction in Sprague-Dawley rat aortic rings at 30 umol relative to KCl-induced contraction
# Aorta [6] = assay: Induction of contraction in Sprague-Dawley rat aortic rings at 25 umol relative to KCl-induced contraction
EC50 (Aorta [3]) [nM],EC50 (Aorta [4]) [nM],SMILES,Emax (Aorta [1]) [%],Emax (Aorta [2]) [%],Activity (Aorta [5]),Activity (Aorta [6])
1.35,3.02,NCCCC[C@@H]1NC(=O)[C@H](Cc2c[nH]c3ccccc23)NC(=O)Cn2cc(nn2)CNC(=O)[C@H](Cc2ccc(O)cc2)NC1=O,97,90,Active,
4.27,0.501,NCCCC[C@@H]1NC(=O)[C@H](Cc2c[nH]c3ccccc23)NC(=O)[C@H](Cc2ccccc2)NC(=O)Cn2cc(nn2)CNC(=O)[C@H](Cc2ccc(O)cc2)NC1=O (cyclo(FWKY[X1])),96,54,,Active
